The source made the active and inactive calls. The rule behind the calls is not given here.
What was measured:
Geotrichum candidum = experiment: Antifungal activity against Geotrichum candidum at 500 ug/disk; format: functional, organism-based
Helminthosporium = experiment: Antifungal activity against Helminthosporium sativum at 500 ug/disk; format: functional, organism-based
Aspergillus flavus = experiment: Antifungal activity against Aspergillus flavus at 500 ug/disk; format: functional, organism-based
Candida albicans = experiment: Antifungal activity against Candida albicans at 500 ug/disk; format: functional, organism-based
Artemia = experiment: Toxicity against brine shrimp at 500 ug/mL; format: organism-based; conditions: in vivo
Sclerotinia sclerotiorum [1] = experiment: Antifungal activity against Sclerotinia sclerotiorum at 0.00034 uM/disk after 96 hrs; format: functional; conditions: read-out: IZ
Aspergillus niger = experiment: Antifungal activity against Aspergillus niger at 500 ug/disk; format: functional, organism-based
Fusarium oxysporum = experiment: Antifungal activity against Fusarium oxysporum at 500 ug/disk; format: functional, organism-based
Sclerotinia sclerotiorum [2] = experiment: Antifungal activity against Sclerotinia sclerotiorum at 0.00011 uM/disk after 96 hrs; format: functional; conditions: read-out: IZ

SMILES | Activity (Geotrichum candidum) | Activity (Helminthosporium) | Activity (Aspergillus flavus) | Activity (Candida albicans) | Activity (Artemia) | zone of inhibition at 0.00034 µM (Sclerotinia sclerotiorum [1]) | Activity (Aspergillus niger) | Activity (Fusarium oxysporum) | zone of inhibition at 0.00011 µM (Sclerotinia sclerotiorum [2])
CC1=C[C@H]2C[C@H](C)[C@@H](O)[C@H](C)[C@H]2[C@H](/C=C(C)/C=C(C)\C=C\C(=O)O)/C1=C\C(=O)CO | inactive | inactive | inactive | inactive | Non-toxic | 16 mm | inactive | inactive | –
CC1=C[C@H]2C[C@H](C)[C@@H](O)[C@H](C)[C@H]2[C@H](/C=C(C)/C=C(C)/C=C/C(=O)O)/C1=C\C(=O)CO | inactive | inactive | inactive | inactive | Non-toxic | – | inactive | inactive | 17 mm
